Measured values as given in ChEMBL document CHEMBL1134218, “Sialidase inhibitors related to zanamivir. Further SAR studies of 4-amino-4H-pyran-2-carboxylic acid-6-propylamides” (Bioorg Med Chem Lett, 2001).
In brackets after ≈: the same amount, converted by molar mass.

Assays:
Influenza A virus = assay: Concentration required for reduction of plaque against influenza A; format: functional, organism-based, unidentified influenza virus
Influenza B virus = assay: Concentration required for reduction of plaque against influenza B; format: functional, organism-based, unidentified influenza virus
[1] = Influenza A virus, read-out: IC50
[2] = Influenza B virus, read-out: IC50

Row | SMILES | IC50 (Influenza A virus; [1]) | IC50 (Influenza B virus; [2]) | IC50 (Influenza A virus) | IC50 (Influenza B virus)
1 | CCCN(CCC)C(=O)[C@@H]1OC(C(=O)O)=C[C@H](N)[C@H]1NC(C)=O | 2 ng/mL (≈ 6.11 nM) | 0.7 µg/mL (≈ 2140 nM) |  | 
2 | CCCN(CCc1ccccc1)C(=O)[C@@H]1OC(C(=O)O)=C[C@H](N)[C@H]1NC(=O)C(F)(F)F | 4 ng/mL (≈ 9.02 nM) | 0.056 µg/mL (≈ 126 nM) |  | 
3 | CCCN(CCC)C(=O)[C@@H]1OC(C(=O)O)=C[C@H](N)[C@H]1NC(=O)CC | 0.2 ng/mL (≈ 0.586 nM) | 3 µg/mL (≈ 8790 nM) |  | 
4 | CCCN(CCC)C(=O)[C@@H]1OC(C(=O)O)=C[C@H](N)[C@H]1NC(=O)C(F)(F)F | 0.01 ng/mL (≈ 0.0262 nM) | 0.3 µg/mL (≈ 787 nM) |  | 
5 | CCCN(CCc1ccccc1)C(=O)[C@@H]1OC(C(=O)O)=C[C@H](N)[C@H]1NC(C)=O | 30 ng/mL (≈ 77 nM) | 0.28 µg/mL (≈ 719 nM) | 30 ng/mL (≈ 77 nM) | 0.3 µg/mL (≈ 770 nM)
6 | CC(=O)N[C@H]1[C@H]([C@H](O)[C@H](O)CO)OC(C(=O)O)=C[C@@H]1NC(=N)N [ZANAMIVIR] | 5 ng/mL (≈ 15 nM) | 0.002 µg/mL (≈ 6.02 nM) |  | 
7 | CCCN(CCc1ccccc1)C(=O)[C@@H]1OC(C(=O)O)=C[C@H](O)[C@H]1NC(C)=O | 5 ng/mL (≈ 12.8 nM) | > 100 µg/mL |  | 
